For experiment [1], the target named is T1, BDNF/NT-3 growth factors receptor (Homo sapiens, UniProt Q16620). Put plainly: Agonist activity at EGFP-fused TrkB receptor (unknown origin) expressed in HEK293T cells assessed as increase in TrkB phosphorylation at Y705 residue at 1 uM after 10 to 15 mins by Western blot analysis. The format is cell-based. A general note: A western blot detects proteins with antibodies after separation by electrophoresis.
Target sequence in this assay (Q16620 32-822 limits assumed): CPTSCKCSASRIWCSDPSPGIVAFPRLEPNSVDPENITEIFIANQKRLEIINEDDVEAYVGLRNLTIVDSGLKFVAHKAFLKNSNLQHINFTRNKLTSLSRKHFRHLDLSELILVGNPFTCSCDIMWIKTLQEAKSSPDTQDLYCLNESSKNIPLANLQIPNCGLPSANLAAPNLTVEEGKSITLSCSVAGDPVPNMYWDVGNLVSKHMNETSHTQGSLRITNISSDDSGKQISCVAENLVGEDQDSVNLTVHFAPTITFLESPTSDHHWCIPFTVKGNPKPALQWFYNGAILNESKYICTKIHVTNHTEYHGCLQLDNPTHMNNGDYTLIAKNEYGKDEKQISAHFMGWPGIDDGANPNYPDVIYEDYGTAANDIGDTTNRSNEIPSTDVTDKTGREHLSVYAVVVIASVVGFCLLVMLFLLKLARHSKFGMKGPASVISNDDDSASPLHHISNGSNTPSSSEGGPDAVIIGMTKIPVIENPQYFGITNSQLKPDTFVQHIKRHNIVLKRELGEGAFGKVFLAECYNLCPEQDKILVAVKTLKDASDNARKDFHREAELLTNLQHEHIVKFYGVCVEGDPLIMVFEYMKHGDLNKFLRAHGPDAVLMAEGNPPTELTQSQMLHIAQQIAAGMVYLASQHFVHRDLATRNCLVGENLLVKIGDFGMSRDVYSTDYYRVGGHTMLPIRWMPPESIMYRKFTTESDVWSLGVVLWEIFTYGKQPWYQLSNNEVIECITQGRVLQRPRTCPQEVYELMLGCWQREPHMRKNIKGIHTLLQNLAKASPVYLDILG

The target in experiment [2] is T2, High affinity nerve growth factor receptor (Homo sapiens, UniProt P04629). Briefly: Agonist activity at RFP-fused TrkA receptor (unknown origin) expressed in HEK293T cells assessed as increase in TrkA phosphorylation at Y490 residue at 1 uM after 10 to 15 mins by Western blot analysis. In kind it is cell-based.
Target sequence in this assay (P04629 33-796 limits assumed): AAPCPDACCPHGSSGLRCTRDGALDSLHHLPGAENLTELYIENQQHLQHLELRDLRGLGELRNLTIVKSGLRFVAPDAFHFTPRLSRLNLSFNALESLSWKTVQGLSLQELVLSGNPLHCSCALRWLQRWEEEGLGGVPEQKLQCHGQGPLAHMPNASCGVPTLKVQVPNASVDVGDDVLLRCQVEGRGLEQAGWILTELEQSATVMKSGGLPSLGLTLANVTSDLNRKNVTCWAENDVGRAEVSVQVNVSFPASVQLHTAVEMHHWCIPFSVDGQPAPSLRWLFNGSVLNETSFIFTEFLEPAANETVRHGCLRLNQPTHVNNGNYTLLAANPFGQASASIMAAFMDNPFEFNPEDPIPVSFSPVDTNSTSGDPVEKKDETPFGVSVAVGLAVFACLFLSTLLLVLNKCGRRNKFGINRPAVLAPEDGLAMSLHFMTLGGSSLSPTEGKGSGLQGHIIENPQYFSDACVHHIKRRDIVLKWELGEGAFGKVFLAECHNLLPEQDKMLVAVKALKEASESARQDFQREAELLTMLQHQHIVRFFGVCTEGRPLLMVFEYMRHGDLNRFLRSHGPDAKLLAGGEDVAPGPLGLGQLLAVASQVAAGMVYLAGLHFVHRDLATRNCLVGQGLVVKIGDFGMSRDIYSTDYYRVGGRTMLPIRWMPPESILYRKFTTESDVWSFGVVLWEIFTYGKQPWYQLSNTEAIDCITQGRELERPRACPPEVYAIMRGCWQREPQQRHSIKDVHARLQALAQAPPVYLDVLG
Experiment [3] concerns the target T1, BDNF/NT-3 growth factors receptor. Put plainly: Agonist activity at EGFP-fused TrkB receptor (unknown origin) expressed in HEK293T cells assessed as increase in TrkB phosphorylation at Y705 residue after 10 to 15 mins by Western blot analysis. In kind it is cell-based.
Target sequence in this assay (Q16620 32-822 limits assumed): as the sequence (Q16620 32-822 limits assumed) above
Experiment [4] deals with BDNF/NT-3 growth factors receptor (Mus musculus) (UniProt P15209). Briefly: Agonist activity at TrkB receptor in Swiss mouse primary cortical neurons assessed as increase in TrkB phosphorylation at Y705 residue after 15 mins by Western blot analysis.
Experiment [5] concerns the target T1, BDNF/NT-3 growth factors receptor. Put plainly: Agonist activity at EGFP-fused TrkB receptor (unknown origin) expressed in HEK293T cells after 6 hrs by luciferase reporter gene assay. In kind it is cell-based.
Target sequence in this assay (Q16620 whole entry, the tested form may be a part): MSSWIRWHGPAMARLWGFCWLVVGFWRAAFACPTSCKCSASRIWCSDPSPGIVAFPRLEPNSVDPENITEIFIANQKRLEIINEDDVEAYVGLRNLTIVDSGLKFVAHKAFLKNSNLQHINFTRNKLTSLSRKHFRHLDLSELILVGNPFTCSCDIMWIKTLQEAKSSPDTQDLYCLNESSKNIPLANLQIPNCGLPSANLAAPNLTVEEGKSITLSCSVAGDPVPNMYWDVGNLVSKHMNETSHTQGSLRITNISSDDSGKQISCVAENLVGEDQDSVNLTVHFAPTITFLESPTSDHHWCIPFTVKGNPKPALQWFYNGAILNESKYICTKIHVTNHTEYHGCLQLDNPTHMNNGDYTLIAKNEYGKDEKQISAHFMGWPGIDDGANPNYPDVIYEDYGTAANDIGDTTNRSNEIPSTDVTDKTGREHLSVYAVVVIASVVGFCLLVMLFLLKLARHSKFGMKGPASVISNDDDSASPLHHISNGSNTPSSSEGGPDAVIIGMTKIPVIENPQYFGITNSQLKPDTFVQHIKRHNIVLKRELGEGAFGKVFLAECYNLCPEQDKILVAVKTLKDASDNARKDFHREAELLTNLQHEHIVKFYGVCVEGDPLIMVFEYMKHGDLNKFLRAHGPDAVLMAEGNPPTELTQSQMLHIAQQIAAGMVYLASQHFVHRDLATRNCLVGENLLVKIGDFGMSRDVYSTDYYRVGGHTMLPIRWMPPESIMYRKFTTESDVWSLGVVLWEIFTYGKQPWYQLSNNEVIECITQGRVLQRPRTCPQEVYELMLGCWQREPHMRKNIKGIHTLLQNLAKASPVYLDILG
The target of experiment [6] is Luciferin 4-monooxygenase (Photinus pyralis) (UniProt P08659). Briefly: Activation of firefly luciferase activity expressed in HEK293T cells after 6 hrs by luminescence assay. In kind it is cell-based.
For experiment [7], the target named is BDNF/NT-3 growth factors receptor (Mus musculus) (UniProt P15209). Briefly: Agonist activity at TrkB receptor in Swiss mouse primary cortical neurons assessed as increase in MAP2 expression after 72 hrs by Western blot analysis.
The species entered for another experiment is Homo sapiens. Briefly: Selectivity ratio of EC50 for RFP-fused TrkA receptor (unknown origin) expressed in HEK293T cells to EC50 for […] receptor (unknown origin) expressed in HEK293T cells. The format is cell-based.
For experiment [8], the target named is T1, BDNF/NT-3 growth factors receptor. Briefly: Agonist activity at EGFP-fused TrkB receptor (unknown origin) expressed in HEK293T cells assessed as increase in ERK1/2 phosphorylation after 15 mins by Western blot analysis. The format is cell-based.
Target sequence in this assay (Q16620 32-822 limits assumed): as the sequence (Q16620 32-822 limits assumed) above
Experiment [9] deals with BDNF/NT-3 growth factors receptor (Mus musculus) (UniProt P15209). Put plainly: Agonist activity at TrkB receptor in Swiss mouse primary cortical neurons assessed as increase in PSD95 expression after 72 hrs by Western blot analysis.
For experiment [10] the target is unchanged. Put plainly: Agonist activity at TrkB receptor in Swiss mouse primary cortical neurons transfected with AAV2 Tdtomato assessed as increase in dendritic arborization at 100 nM after 72 hrs by confocal microscopic analysis.
Experiment [11] has as its target T2, High affinity nerve growth factor receptor. Briefly: Agonist activity at RFP-fused TrkA receptor (unknown origin) expressed in HEK293T cells after 6 hrs by luciferase reporter gene assay. The format is cell-based. A general note: Reporter assays use an easily measured gene product as a stand-in for the process of interest.
Target sequence in this assay (P04629 whole entry, the tested form may be a part): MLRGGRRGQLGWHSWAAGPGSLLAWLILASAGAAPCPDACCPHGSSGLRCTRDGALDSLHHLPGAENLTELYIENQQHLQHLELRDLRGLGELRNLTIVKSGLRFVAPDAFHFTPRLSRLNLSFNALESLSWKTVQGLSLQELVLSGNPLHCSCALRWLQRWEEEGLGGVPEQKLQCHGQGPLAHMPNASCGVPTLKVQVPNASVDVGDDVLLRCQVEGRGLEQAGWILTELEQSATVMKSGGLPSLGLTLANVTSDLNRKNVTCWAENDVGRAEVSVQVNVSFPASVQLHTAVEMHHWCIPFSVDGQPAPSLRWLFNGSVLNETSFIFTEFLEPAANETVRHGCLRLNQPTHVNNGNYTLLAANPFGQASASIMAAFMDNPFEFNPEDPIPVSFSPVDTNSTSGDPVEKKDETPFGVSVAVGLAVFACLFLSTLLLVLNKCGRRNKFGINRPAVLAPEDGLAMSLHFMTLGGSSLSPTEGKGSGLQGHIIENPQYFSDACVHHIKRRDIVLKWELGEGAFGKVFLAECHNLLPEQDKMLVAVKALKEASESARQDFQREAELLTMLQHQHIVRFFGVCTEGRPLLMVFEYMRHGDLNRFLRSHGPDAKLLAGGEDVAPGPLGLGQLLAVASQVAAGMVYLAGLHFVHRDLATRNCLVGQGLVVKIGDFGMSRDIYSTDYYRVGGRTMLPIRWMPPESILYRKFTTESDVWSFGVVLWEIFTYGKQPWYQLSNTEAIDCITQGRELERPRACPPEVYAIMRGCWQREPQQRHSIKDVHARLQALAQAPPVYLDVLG

For two molecules, Activity, EC50 and Ratio EC50 results are on record in ChEMBL document CHEMBL4330110, “Discovery of an isocoumarin analogue that modulates neuronal functions via neurotrophin receptor TrkB” (Bioorg Med Chem Lett, 2019).

The structures appear in SMILES notation. Active and inactive are the calls of the source. The rule behind the calls is not given here. Where only a bound is given, the exact number is not on record here.

BDNF/NT-3 growth factors receptor (Mus musculus), sequence (P15209 whole entry, the tested form may be a part): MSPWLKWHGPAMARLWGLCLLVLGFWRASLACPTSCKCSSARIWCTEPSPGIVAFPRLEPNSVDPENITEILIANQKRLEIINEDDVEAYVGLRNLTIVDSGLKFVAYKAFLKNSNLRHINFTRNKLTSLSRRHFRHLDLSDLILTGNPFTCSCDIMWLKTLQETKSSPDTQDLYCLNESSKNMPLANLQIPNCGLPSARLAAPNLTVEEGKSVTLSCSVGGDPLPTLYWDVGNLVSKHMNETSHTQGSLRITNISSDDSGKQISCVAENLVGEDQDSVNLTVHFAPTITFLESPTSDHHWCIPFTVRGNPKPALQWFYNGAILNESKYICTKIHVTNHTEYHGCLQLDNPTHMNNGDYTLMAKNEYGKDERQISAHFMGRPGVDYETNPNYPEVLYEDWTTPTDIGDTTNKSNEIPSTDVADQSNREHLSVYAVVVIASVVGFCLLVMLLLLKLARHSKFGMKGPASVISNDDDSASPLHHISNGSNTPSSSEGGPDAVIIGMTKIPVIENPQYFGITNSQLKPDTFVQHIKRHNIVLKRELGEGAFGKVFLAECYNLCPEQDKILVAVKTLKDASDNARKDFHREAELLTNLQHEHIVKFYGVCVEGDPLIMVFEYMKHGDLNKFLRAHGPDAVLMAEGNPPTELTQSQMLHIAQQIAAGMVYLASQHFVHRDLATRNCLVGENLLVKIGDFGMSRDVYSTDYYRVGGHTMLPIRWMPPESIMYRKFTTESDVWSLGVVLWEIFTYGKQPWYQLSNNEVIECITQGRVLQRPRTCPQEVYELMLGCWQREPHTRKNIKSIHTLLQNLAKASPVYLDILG
Luciferin 4-monooxygenase (Photinus pyralis), sequence (P08659 whole entry): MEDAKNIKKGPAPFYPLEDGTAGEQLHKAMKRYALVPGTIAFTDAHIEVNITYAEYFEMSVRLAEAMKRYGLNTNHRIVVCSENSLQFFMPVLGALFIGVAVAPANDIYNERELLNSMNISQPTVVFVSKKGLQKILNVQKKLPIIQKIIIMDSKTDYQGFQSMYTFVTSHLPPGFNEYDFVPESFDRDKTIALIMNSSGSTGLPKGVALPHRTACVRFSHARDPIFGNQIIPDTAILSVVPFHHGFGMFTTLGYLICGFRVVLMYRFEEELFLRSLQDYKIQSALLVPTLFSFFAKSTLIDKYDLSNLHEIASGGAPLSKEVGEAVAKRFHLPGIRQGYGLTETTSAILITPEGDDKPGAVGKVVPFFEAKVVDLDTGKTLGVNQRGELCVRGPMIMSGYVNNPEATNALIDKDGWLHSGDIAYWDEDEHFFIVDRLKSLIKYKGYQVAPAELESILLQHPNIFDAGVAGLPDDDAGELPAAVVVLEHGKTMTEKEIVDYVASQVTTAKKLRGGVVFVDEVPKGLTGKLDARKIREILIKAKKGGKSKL

For the molecule `O=c1oc(-c2ccc3c(c2)OCO3)cc2cccc(O)c12`, in experiment [1], the result was Active.

Consider `COc1ccc(-c2cc3cccc(O)c3c(=O)o2)cc1`, for which the outcome in [2], in [1] and in experiment [10] was Active. The Activity result in experiment [3], in experiment [4], in experiment [7] and in [8] was “Dose-dependent effect” each time. The EC50 (as a rule, the concentration that produces a half-maximal response) in experiment [5] was 87.2 nM; in experiment [11], 667 nM. The result in experiment [6] and in experiment [9] was inactive. Also, the Ratio EC50 in the experiment filed under Homo sapiens was over 7.
